Laboratory results from ChEMBL document CHEMBL4483862, “Open-source discovery of chemical leads for next-generation chemoprotective antimalarials” (2018).

System: Plasmodium berghei
Assay: Luciferase/luciferin-expressing antifolate-resistant parasites were used to infect a culture of HepG2 cells that were pre-incubated with compounds. Infected hepatocytes emit light due to the luciferase reaction. Assay results are presented as the percent inhibition of light emission compared to control. […]
Assay type: functional
Settings: sporozoite; for IC90: read-out: LUCIFERASE INFECTION ASSAY - IC90

| Compound | IC90 [µM] | further results |
| --- | --- | --- |
| COc1cccc(-c2cnc3c(NC=O)cc(-c4ccc(OC)cc4OC)cn23)c1 | 0.664 | IC50 (HEPG2TOX_HILL_SLOPE 0.453, HEPG2TOX_R_SQUARED 0.602, PBLUC_HILL_SLOPE 0.932, PBLUC_R_SQUARED 0.666, read-out: LUCIFERASE INFECTION ASSAY - IC50): 0.0629 µM |
| COc1ccc(-c2cnc3ccc(NCc4ccccn4)nn23)cc1OC | 5.88 | IC50 (HEPG2TOX_HILL_SLOPE 0.427, HEPG2TOX_R_SQUARED 0.871, PBLUC_HILL_SLOPE 2.47, PBLUC_R_SQUARED 0.694, read-out: LUCIFERASE INFECTION ASSAY - IC50): 2.41 µM |
| COc1cccc(-c2cc(=O)[nH]c(Nc3nc(C)c4cc(C)ccc4n3)n2)c1 | > 8.84 | IC50 (HEPG2TOX_HILL_SLOPE 0.454, HEPG2TOX_R_SQUARED 0.693, PBLUC_HILL_SLOPE 1.82, PBLUC_R_SQUARED 0.608, read-out: LUCIFERASE INFECTION ASSAY - IC50): 2.67 µM |
| Clc1ccc2c(NCc3coc(-c4cccs4)n3)ncnc2c1 | 6.02 | IC50 (HEPG2TOX_HILL_SLOPE 0.478, HEPG2TOX_R_SQUARED 0.927, PBLUC_HILL_SLOPE 2.76, PBLUC_R_SQUARED 0.49, read-out: LUCIFERASE INFECTION ASSAY - IC50): 2.71 µM |
| CC(C)CC(=O)NNc1ccnc2cc(Cl)ccc12 | 4.29 | IC50 (HEPG2TOX_HILL_SLOPE 0.439, HEPG2TOX_R_SQUARED 0.287, PBLUC_HILL_SLOPE 11, PBLUC_R_SQUARED 0.716, read-out: LUCIFERASE INFECTION ASSAY - IC50): 3.51 µM |
| Cc1ccc(C2c3c(-c4cc(C)cc(C)c4O)n[nH]c3C(=O)N2CCCO)cc1 (centres undefined) | > 8.43 | IC50 (HEPG2TOX_HILL_SLOPE 0.468, HEPG2TOX_R_SQUARED 0.76, PBLUC_HILL_SLOPE 1.88, PBLUC_R_SQUARED 0.575, read-out: LUCIFERASE INFECTION ASSAY - IC50): 5.49 µM |
| Cc1cc(/C=C/c2cc(C(=O)O)c3ccccc3n2)cc(C)c1OC(F)F | 3.87 | IC50 (HEPG2TOX_HILL_SLOPE 0.464, HEPG2TOX_R_SQUARED 0.656, PBLUC_HILL_SLOPE 13.4, PBLUC_R_SQUARED 0.624, read-out: LUCIFERASE INFECTION ASSAY - IC50): 3.28 µM |
| COc1ccc(-c2cs/c(=N\c3ccccc3C(F)(F)F)n2/N=C/c2ccc(O)c(O)c2)cc1 | > 10 | IC50 (HEPG2TOX_HILL_SLOPE 0.402, HEPG2TOX_R_SQUARED 0.786, PBLUC_HILL_SLOPE 2.07, PBLUC_R_SQUARED 0.586, read-out: LUCIFERASE INFECTION ASSAY - IC50): 3.82 µM |
| CC(Sc1nc2scc(-c3ccccc3)c2c(=O)n1C)c1ccccc1 (centres undefined) | > 10 | IC50 (HEPG2TOX_HILL_SLOPE 0.394, HEPG2TOX_R_SQUARED 0.0907, read-out: LUCIFERASE INFECTION ASSAY - IC50): > 10 µM |
| CNc1ccccc1C(C)(C)c1cc(-c2ccc(C(C)C)cc2)n[nH]1 | > 10 | IC50 (HEPG2TOX_HILL_SLOPE 0.485, HEPG2TOX_R_SQUARED 0.452, PBLUC_HILL_SLOPE 15.6, PBLUC_R_SQUARED 0.572, read-out: LUCIFERASE INFECTION ASSAY - IC50): 8.84 µM |
| Cc1ccc2nc(NC(=O)c3c(F)cccc3F)c(C(=O)NC3CCCC3)n2c1 | 8.17 | IC50 (HEPG2TOX_HILL_SLOPE 0.446, HEPG2TOX_R_SQUARED 0.792, PBLUC_HILL_SLOPE 1.53, PBLUC_R_SQUARED 0.752, read-out: LUCIFERASE INFECTION ASSAY - IC50): 1.95 µM |
| CC(C)(C)NC(=O)CN1CCN(Cc2ccc(-c3ccccc3C#N)cc2)CC1 | > 10 | IC50 (HEPG2TOX_HILL_SLOPE 0.417, HEPG2TOX_R_SQUARED 0.524, read-out: LUCIFERASE INFECTION ASSAY - IC50): > 10 µM |
| COc1ccc(-c2nnc(SCC(=O)c3cc(F)ccc3OC)[nH]2)cc1 | > 10 | IC50 (HEPG2TOX_HILL_SLOPE 0.475, HEPG2TOX_R_SQUARED 0.679, read-out: LUCIFERASE INFECTION ASSAY - IC50): > 10 µM |
| CS(=O)(=O)c1ccc(S(=O)(=O)Oc2ccc(C3CCCCC3)cc2)cc1 | > 10 | IC50 (HEPG2TOX_HILL_SLOPE 0.47, HEPG2TOX_R_SQUARED 0.776, PBLUC_HILL_SLOPE 1, PBLUC_R_SQUARED 0.337, read-out: LUCIFERASE INFECTION ASSAY - IC50): 6.62 µM |
| CN(Cc1ccc(N2CCCCC2)cc1)C(=O)c1cc(-c2cccnc2)nc2ccccc12 | > 10 | IC50 (HEPG2TOX_HILL_SLOPE 0.393, HEPG2TOX_R_SQUARED 0.924, PBLUC_HILL_SLOPE 2.39, PBLUC_R_SQUARED 0.338, read-out: LUCIFERASE INFECTION ASSAY - IC50): 4.33 µM |
| Cc1ccc(Sc2nc3ccccc3nc2NS(=O)(=O)c2ccc(F)cc2C)cc1 | > 10 | IC50 (HEPG2TOX_HILL_SLOPE 0.43, HEPG2TOX_R_SQUARED 0.741, read-out: LUCIFERASE INFECTION ASSAY - IC50): > 10 µM |

| Compound | IC90 [µM] | further results |
| --- | --- | --- |
| Cc1ccc(-c2nc(-c3ccccc3)nc(N3CCN(C)CC3)c2C#N)cc1 | > 8.93 | IC50 (HEPG2TOX_HILL_SLOPE 0.407, HEPG2TOX_R_SQUARED 0.712, PBLUC_HILL_SLOPE 0.491, PBLUC_R_SQUARED 0.261, read-out: LUCIFERASE INFECTION ASSAY - IC50): > 8.93 µM |
| O=C(Nc1nc(CN2CCOCC2)cs1)c1ccc(-c2ccccc2)cc1 | > 10 | IC50 (HEPG2TOX_HILL_SLOPE 0.446, HEPG2TOX_R_SQUARED 0.661, PBLUC_HILL_SLOPE 0.824, PBLUC_R_SQUARED 0.624, read-out: LUCIFERASE INFECTION ASSAY - IC50): 0.817 µM |
| Oc1cccc(-c2cnc3cnc(-c4ccco4)cn23)c1 | > 11.9 | IC50 (HEPG2TOX_HILL_SLOPE 0.436, HEPG2TOX_R_SQUARED 0.582, PBLUC_HILL_SLOPE 2.53, PBLUC_R_SQUARED 0.573, read-out: LUCIFERASE INFECTION ASSAY - IC50): 6.72 µM |
| CC(=O)c1c(C)[nH]c(C(=O)OCC(=O)Nc2ccccc2C(F)(F)F)c1C | > 10 | IC50 (HEPG2TOX_HILL_SLOPE 0.401, HEPG2TOX_R_SQUARED 0.713, read-out: LUCIFERASE INFECTION ASSAY - IC50): > 10 µM |
| O=C(Nc1nc(CN2CCOCC2)cs1)c1ccc(-c2ccc(Cl)cc2)s1 | > 10 | IC50 (HEPG2TOX_HILL_SLOPE 0.481, HEPG2TOX_R_SQUARED 0.864, PBLUC_HILL_SLOPE 0.848, PBLUC_R_SQUARED 0.477, read-out: LUCIFERASE INFECTION ASSAY - IC50): 0.826 µM |
| O=C1C=C/C(=N\Nc2ccc3ccccc3c2)c2cccnc21 | 1.15 | IC50 (HEPG2TOX_HILL_SLOPE 0.424, HEPG2TOX_R_SQUARED 0.848, PBLUC_HILL_SLOPE 2.17, PBLUC_R_SQUARED 0.805, read-out: LUCIFERASE INFECTION ASSAY - IC50): 0.42 µM |
| CCN(CC)S(=O)(=O)c1cc(C(=O)c2c(-c3ccc(Cl)cc3)cc3ccccn23)ccc1F | > 10 | IC50 (HEPG2TOX_HILL_SLOPE 0.422, HEPG2TOX_R_SQUARED 0.219, read-out: LUCIFERASE INFECTION ASSAY - IC50): > 10 µM |
| COCCCNc1nccc2nc(-c3cccc(C(C)C)c3)[nH]c12 | > 10 | IC50 (HEPG2TOX_HILL_SLOPE 0.453, HEPG2TOX_R_SQUARED 0.728, PBLUC_HILL_SLOPE 2.13, PBLUC_R_SQUARED 0.522, read-out: LUCIFERASE INFECTION ASSAY - IC50): 4.47 µM |
| COc1ccc(NS(=O)(=O)c2ccc(/C=C/C(=O)N(C)Cc3ccc(OC)c(OC)c3OC)cc2)cc1 | > 10 | IC50 (HEPG2TOX_HILL_SLOPE 0.416, HEPG2TOX_R_SQUARED 0.547, PBLUC_HILL_SLOPE 11.7, PBLUC_R_SQUARED 0.671, read-out: LUCIFERASE INFECTION ASSAY - IC50): 9.46 µM |
| Cc1nn(Cc2ccccc2)c(Cl)c1C(=O)OC(C)C(=O)N1CCN(Cc2ccccc2)CC1 (centres undefined) | > 10 | IC50 (HEPG2TOX_HILL_SLOPE 0.446, HEPG2TOX_R_SQUARED 0.649, read-out: LUCIFERASE INFECTION ASSAY - IC50): > 10 µM |
| Cc1n(C)c2c([n+]1C)C(=O)c1ccccc1C2=O | 0.128 | IC50 (HEPG2TOX_HILL_SLOPE 0.401, HEPG2TOX_R_SQUARED 0.884, PBLUC_HILL_SLOPE 1.09, PBLUC_R_SQUARED 0.944, read-out: LUCIFERASE INFECTION ASSAY - IC50): 0.017 µM |
| Fc1cccc(-c2nc3ccnc(Nc4ccccc4)c3[nH]2)c1 | > 10 | IC50 (HEPG2TOX_HILL_SLOPE 0.405, HEPG2TOX_R_SQUARED 0.516, PBLUC_HILL_SLOPE 2.81, PBLUC_R_SQUARED 0.545, read-out: LUCIFERASE INFECTION ASSAY - IC50): 5.99 µM |
| Cc1ccc(-n2nc(C)c(C(=O)Nc3ccccc3N3CCN(C)CC3)n2)c(C)c1 | > 10 | IC50 (HEPG2TOX_HILL_SLOPE 0.399, HEPG2TOX_R_SQUARED 0.0602, read-out: LUCIFERASE INFECTION ASSAY - IC50): > 10 µM |
| N#Cc1cccc(CSc2nc(NC3CC3)c3ccccc3n2)c1 | > 10 | IC50 (HEPG2TOX_HILL_SLOPE 0.422, HEPG2TOX_R_SQUARED 0.349, read-out: LUCIFERASE INFECTION ASSAY - IC50): > 10 µM |
| C=CCN(c1ccccc1)S(=O)(=O)c1cccc(C(=O)Nc2ccnn2C(C)C2CC2)c1 (centres undefined) | > 10 | IC50 (HEPG2TOX_HILL_SLOPE 0.485, HEPG2TOX_R_SQUARED 0.701, PBLUC_HILL_SLOPE 1.26, PBLUC_R_SQUARED 0.254, read-out: LUCIFERASE INFECTION ASSAY - IC50): > 10 µM |
| COC(=O)Cc1[nH]n(-c2ccccc2)c(=O)c1C(C)=NCc1cccnc1 | > 9.06 | IC50 (HEPG2TOX_HILL_SLOPE 0.403, HEPG2TOX_R_SQUARED 0.018, read-out: LUCIFERASE INFECTION ASSAY - IC50): > 9.06 µM |
